# Source: US12479840B2, “HMG-CoA reductase degradation inducing compound” (Uppthera, priority 2020, dated 2025)
# Target: T1, HMG-CoA reductase (Homo sapiens, UniProt P04035)
# T1 construct: endogenous in cells; host or cells: HepG2 (Korea Cell Line Bank)
# T1 sequence (P04035 1-888): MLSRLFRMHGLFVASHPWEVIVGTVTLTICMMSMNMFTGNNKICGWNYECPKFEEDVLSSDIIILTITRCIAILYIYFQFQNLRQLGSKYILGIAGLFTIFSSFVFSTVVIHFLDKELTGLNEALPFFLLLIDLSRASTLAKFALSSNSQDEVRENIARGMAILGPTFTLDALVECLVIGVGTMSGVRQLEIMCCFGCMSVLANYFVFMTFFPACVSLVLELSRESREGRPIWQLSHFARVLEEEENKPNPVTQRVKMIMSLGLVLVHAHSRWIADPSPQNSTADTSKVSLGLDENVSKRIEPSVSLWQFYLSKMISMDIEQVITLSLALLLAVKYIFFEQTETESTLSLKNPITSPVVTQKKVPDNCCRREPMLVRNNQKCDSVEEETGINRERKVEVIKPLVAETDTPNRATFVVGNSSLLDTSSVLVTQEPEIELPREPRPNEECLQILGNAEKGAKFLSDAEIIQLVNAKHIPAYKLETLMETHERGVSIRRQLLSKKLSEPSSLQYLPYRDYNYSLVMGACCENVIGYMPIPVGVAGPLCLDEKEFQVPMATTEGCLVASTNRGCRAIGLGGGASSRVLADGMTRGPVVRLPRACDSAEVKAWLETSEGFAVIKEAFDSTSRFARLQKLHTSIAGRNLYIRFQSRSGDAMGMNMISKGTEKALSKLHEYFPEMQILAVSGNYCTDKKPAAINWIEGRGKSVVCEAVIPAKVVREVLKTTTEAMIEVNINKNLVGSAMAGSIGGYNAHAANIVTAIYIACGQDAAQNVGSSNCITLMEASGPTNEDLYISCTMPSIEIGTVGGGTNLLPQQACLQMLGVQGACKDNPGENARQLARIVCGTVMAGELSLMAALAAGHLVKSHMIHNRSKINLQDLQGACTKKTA
# Experiment: HMG-CoA reductase (HMGCR) degradation in HepG2 cells by western blotting
# Assay type: cell-based
# Conditions: treated for 18 hours, ratio of HMG-CoA reductase to GAPDH, read-out: DC50
# Method in brief: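 HepG2 cells (passage P105–P110) treated 18 hours with compounds in 10-point three-fold dilutions from 3 μM. RIPA lysates (15 μg protein, BCA-quantified) run on SDS-PAGE and immunoblotted for HMGCR (1:500) with GAPDH (1:20000) as loading control, primary antibodies 16 hours at 4° C.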
row,SMILES,DC50
1,"CN[C@@H](C)C(=O)N[C@H](C(=O)N1CCC[C@@H]1c1nc(C(=O)c2cccc(OCCOCCOCCNC(=O)O[C@H]3C[C@@H](C)C=C4C=C[C@H](C)[C@H](CC[C@@H]5C[C@@H](O)CC(=O)O5)[C@H]43)c2)cs1)C1CCCCC1 [Compound 34, (1S,3R,7S,8S,8aR)-8-(2-((2R,4R)-4-hydroxy-6-oxotetrahydro-2H-pyran-2-yl)ethyl)-3,7-dimethyl-1,2,3,7,8,8a-hexahydronaphthalen-1-yl (2-(2-(2-(3-(2-((R)-1-((S)-2-cyclohexyl-2-((S)-2-(methylamino)propanamido)acetyl)pyrrolidin-2-yl)thiazole-4-carbonyl)phenoxy)ethoxy)ethoxy)ethyl)carbamate]",> 500 nM
2,"CN[C@@H](C)C(=O)N[C@H](C(=O)N1CCC[C@@H]1c1nc(C(=O)c2cccc(OCCOCCOCCNC(=O)O[C@H]3C[C@@H](C)C=C4C=C[C@H](C)[C@H](CC[C@@H]5C[C@@H](O[Si](C)(C)C(C)(C)C)CC(=O)O5)[C@H]43)c2)cs1)C1CCCCC1 [Compound 35, (1S,3R,7S,8S,8aR)-8-(2-((2R,4R)-4-((tert-butyldimethylsilyl)oxy)-6-oxotetrahydro-2H-pyran-2-yl)ethyl)-3,7-dimethyl-1,2,3,7,8,8a-hexahydronaphthalen-1-yl (2-(2-(2-(3-(2-((R)-1-((S)-2-cyclohexyl-2-((S)-2-(methylamino)propanamido)acetyl)pyrrolidin-2-yl)thiazole-4-carbonyl)phenoxy)ethoxy)ethoxy)ethyl)carbamate]",> 500 nM
3,"CN[C@@H](C)C(=O)N[C@H](C(=O)N1CCC[C@H]1c1nc(C(=O)c2cccc(OCCOCCOCCNC(=O)O[C@H]3C[C@@H](C)C=C4C=C[C@H](C)[C@H](CC[C@@H]5C[C@@H](O[Si](C)(C)C(C)(C)C)CC(=O)O5)[C@H]43)c2)cs1)C1CCCCC1 [Compound 36, (1S,3R,7S,8S,8aR)-8-(2-((2R,4R)-4-((tert-butyldimethylsilyl)oxy)-6-oxotetrahydro-2H-pyran-2-yl)ethyl)-3,7-dimethyl-1,2,3,7,8,8a-hexahydronaphthalen-1-yl (2-(2-(2-(3-(2-((S)-1-((S)-2-cyclohexyl-2-((S)-2-(methylamino)propanamido)acetyl)pyrrolidin-2-yl)thiazole-4-carbonyl)phenoxy)ethoxy)ethoxy)ethyl)carbamate]",< 50 nM
4,"CN[C@@H](C)C(=O)N[C@H](C(=O)N1CCC[C@H]1c1nc(C(=O)c2cccc(OCCOCCOCCOCCNC(=O)O[C@H]3C[C@@H](C)C=C4C=C[C@H](C)[C@H](CC[C@@H]5C[C@@H](O[Si](C)(C)C(C)(C)C)CC(=O)O5)[C@H]43)c2)cs1)C1CCCCC1 [Compound 37, (1S,3R,7S,8S,8aR)-8-(2-((2R,4R)-4-((tert-butyldimethylsilyl)oxy)-6-oxotetrahydro-2H-pyran-2-yl)ethyl)-3,7-dimethyl-1,2,3,7,8,8a-hexahydronaphthalen-1-yl (2-(2-(2-(2-(3-(2-((S)-1-((S)-2-cyclohexyl-2-((S)-2-(methylamino)propanamido)acetyl)pyrrolidin-2-yl)thiazole-4-carbonyl)phenoxy)ethoxy)ethoxy)ethoxy)ethyl)carbamate]",< 50 nM
5,"CN[C@@H](C)C(=O)N[C@H](C(=O)N1CCC[C@H]1c1nc(C(=O)c2cccc(OCCOCCOCCOCCOCCNC(=O)O[C@H]3C[C@@H](C)C=C4C=C[C@H](C)[C@H](CC[C@@H]5C[C@@H](O[Si](C)(C)C(C)(C)C)CC(=O)O5)[C@H]43)c2)cs1)C1CCCCC1 [Compound 38, (1S,3R,7S,8S,8aR)-8-(2-((2R,4R)-4-((tert-butyldimethylsilyl)oxy)-6-oxotetrahydro-2H-pyran-2-yl)ethyl)-3,7-dimethyl-1,2,3,7,8,8a-hexahydronaphthalen-1-yl (14-(3-(2-((S)-1-((S)-2-cyclohexyl-2-((S)-2-(methylamino)propanamido)acetyl)pyrrolidin-2-yl)thiazole-4-carbonyl)phenoxy)-3,6,9,12-tetraoxatetradecyl)carbamate]",< 50 nM
